Among the data in patent US10590082B2, “N-(5-((aryl or heteroaryl)methyloxy)pentyl)-substituted iminosugars as inhibitors of glucosylceramide synthase” (Academisch Medisch Centrum, priority 2014, dated 2020) are IC50 values, retold here.

One experiment concerns the target T1, GBA1 (Homo sapiens, UniProt P04062, R534H).
T1 construct: purchased Sanofi (Cerezyme)
T1 sequence (P04062 40-536 R534H): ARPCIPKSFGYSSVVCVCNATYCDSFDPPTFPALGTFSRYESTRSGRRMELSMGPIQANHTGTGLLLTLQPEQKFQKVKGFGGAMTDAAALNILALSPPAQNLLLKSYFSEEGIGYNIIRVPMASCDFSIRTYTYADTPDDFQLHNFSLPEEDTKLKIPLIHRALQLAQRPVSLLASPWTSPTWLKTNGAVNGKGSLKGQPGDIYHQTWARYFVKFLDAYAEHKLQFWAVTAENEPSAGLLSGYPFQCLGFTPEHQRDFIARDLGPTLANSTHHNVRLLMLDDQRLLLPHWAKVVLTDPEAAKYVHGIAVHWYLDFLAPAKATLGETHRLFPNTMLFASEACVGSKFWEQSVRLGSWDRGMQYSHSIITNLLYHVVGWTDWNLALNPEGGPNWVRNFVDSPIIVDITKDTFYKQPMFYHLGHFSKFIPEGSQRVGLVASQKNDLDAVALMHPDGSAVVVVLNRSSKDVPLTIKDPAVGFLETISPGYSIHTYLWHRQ
Briefly: GBA1 activity, recombinant human enzyme (Cerezyme), 4-MU-β-glucoside substrate.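 Also: enzyme activity read out as fluorescence of the 4-MU released from the substrate, measured on a fluorimeter.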 Format: biochemical.

Experiment [1] addresses T2, glucosylceramide synthase (GCS) (Mus musculus, UniProt O88693).
T2 construct: IC50 values for GCS activity were measured using living cells; endogenous in cells
T2 sequence (O88693 1-394): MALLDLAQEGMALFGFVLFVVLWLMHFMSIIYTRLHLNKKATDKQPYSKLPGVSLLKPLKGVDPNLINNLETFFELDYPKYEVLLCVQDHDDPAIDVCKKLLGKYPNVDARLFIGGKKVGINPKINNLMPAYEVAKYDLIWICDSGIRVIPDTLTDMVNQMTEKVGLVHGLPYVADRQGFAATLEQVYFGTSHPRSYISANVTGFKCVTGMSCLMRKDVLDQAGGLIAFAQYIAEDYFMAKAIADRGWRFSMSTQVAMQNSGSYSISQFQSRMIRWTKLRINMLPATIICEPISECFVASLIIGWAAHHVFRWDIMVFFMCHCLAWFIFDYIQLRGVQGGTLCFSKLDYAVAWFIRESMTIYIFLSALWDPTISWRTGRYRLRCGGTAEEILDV
Briefly: GCS activity in living macrophage  cells (C6-NBD lipid, TLC readout). It counts as cell-based.

A further experiment deals with T3, GBA2 (Homo sapiens, UniProt Q9HCG7).
T3 construct: measured using a membrane fraction obtained from Gaucher spleen; from tissue; host or cells: membrane fraction of Gaucher spleen, pre-treated with conduritol B-epoxide
T3 sequence (Q9HCG7 1-927): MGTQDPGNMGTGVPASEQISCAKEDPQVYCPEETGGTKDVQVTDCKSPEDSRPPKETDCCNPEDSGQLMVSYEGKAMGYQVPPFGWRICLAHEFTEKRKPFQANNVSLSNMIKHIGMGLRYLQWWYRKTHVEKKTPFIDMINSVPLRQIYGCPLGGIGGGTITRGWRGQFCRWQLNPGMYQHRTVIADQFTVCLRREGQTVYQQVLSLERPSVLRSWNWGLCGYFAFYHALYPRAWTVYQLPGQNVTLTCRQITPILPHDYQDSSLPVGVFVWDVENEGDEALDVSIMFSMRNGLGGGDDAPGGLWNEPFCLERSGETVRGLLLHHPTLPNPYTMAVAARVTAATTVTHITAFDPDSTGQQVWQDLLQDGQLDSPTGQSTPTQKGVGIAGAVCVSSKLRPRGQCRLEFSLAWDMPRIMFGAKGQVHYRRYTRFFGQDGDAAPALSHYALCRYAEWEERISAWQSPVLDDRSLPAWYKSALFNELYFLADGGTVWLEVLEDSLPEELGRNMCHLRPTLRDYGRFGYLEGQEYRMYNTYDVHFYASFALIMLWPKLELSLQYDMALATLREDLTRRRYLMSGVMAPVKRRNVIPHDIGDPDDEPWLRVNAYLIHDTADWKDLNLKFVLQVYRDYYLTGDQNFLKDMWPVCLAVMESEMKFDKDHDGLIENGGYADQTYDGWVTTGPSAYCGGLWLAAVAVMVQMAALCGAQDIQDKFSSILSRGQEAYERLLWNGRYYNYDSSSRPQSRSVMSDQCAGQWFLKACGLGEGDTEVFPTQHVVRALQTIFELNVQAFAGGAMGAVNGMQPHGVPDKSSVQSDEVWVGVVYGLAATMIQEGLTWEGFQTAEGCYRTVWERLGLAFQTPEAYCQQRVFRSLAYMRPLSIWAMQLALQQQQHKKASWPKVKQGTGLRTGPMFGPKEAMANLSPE
Briefly: GBA2 activity, membrane fraction from Gaucher spleen, 4-MU-β-glucoside substrate.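 Also: Read-out is fluorimetric quantification of released 4-MU.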 It counts as biochemical.

The mark [2] stands for this setting: D-gluco configuration series, Example 3, read-out: GCS [nM] (IC50).
The mark [3] stands for this setting: D-gluco configuration series, Example 3.

Like-named read-outs stand apart in the source and are kept apart here.

Turning to `C[C@H](OCCCCCN1C[C@H](O)[C@@H](O)[C@H](O)[C@H]1CO)c1ccc(-c2ccccc2)cc1` [Compound 4], the IC50 was found to be 10000 nM on GBA1; 50 nM in experiment [1] (setting [2]); 100 nM in experiment [1] (read-out: inhibitory potency towards GCS, expressed as IC50).
For the compound `C[C@@H](OCCCCCN1C[C@H](O)[C@@H](O)[C@H](O)[C@H]1CO)c1ccc(-c2ccccc2)cc1` [Compound 5], the IC50 is 10000 nM on GBA1 and 40 nM in experiment [1] (setting [2]).
Take `OC[C@@H]1[C@@H](O)[C@H](O)[C@@H](O)CN1CCCCCOCc1ccc(-c2ccccc2)cc1F` [Compound 6]: the IC50 at GBA1 is 250 nM; in experiment [1] (read-out: GCS [nM] (IC50)) it was 25 nM.
The like results for `OC[C@@H]1[C@@H](O)[C@H](O)[C@@H](O)CN1CCCCCOCc1ccc(-c2ccccc2)c(F)c1` [Compound 7] were, in that order, 200 nM and 25 nM.
In the case of `OC[C@@H]1[C@@H](O)[C@H](O)[C@@H](O)CN1CCCCCOCc1ccc(-c2ccccc2)cc1C(F)(F)F` [Compound 8], the IC50 came out at 200 nM at GBA1, 0.12 nM on GBA2 (setting [3]) and 25 nM in experiment [1] (read-out: GCS [nM] (IC50)).
In the case of `OC[C@@H]1[C@@H](O)[C@H](O)[C@@H](O)CN1CCCCCOCc1ccc(-c2ccccc2)c(C(F)(F)F)c1` [Compound 9], the IC50 on GBA1 came to 100 nM; in experiment [1] (read-out: GCS [nM] (IC50)), 25 nM.
Turning to `OC[C@@H]1[C@@H](O)[C@H](O)[C@@H](O)CN1CCCC(F)(F)COCc1ccc(-c2ccccc2)cc1` [Compound 10], the IC50 on GBA1 is 12500 nM; against GBA2, 2 nM; in experiment [1] (read-out: GCS [nM] (IC50)) it was 15 nM.
On the same counts, the results for `OC[C@@H]1[C@@H](O)[C@H](O)[C@@H](O)CN1CC(F)(F)CCCOCc1ccc(-c2ccccc2)cc1` [Compound 11] are 500 nM, 2 nM and 200 nM.
For the compound `OC[C@@H]1[C@@H](O)[C@H](O)[C@@H](O)CN1CCCCCOCc1ccc(-c2ccccc2)cn1` [Compound 12], the IC50 at GBA1 was determined as 1500 nM; against GBA2 (setting [3]), 3 nM; in experiment [1] (read-out: GCS [nM] (IC50)), 200 nM.
On the same counts, the results for `OC[C@@H]1[C@@H](O)[C@H](O)[C@@H](O)CN1CCCCCOCc1cccc(-c2ccccc2)c1` [Compound 13] are 300 nM, 2 nM and 75 nM.
The like results for `OC[C@@H]1[C@@H](O)[C@H](O)[C@@H](O)CN1CCCCCOCc1ccccc1-c1ccccc1` [Compound 14] were, in that order, 1250 nM, 3 nM and 50 nM.
On the same counts, the results for `OC[C@@H]1[C@@H](O)[C@H](O)[C@@H](O)CN1CCCCCOCc1ccc(-c2ccc(F)nc2)cc1` [Compound 15] are 3000 nM, 5 nM and 750 nM.
As to `OC[C@@H]1[C@@H](O)[C@H](O)[C@@H](O)CN1CCCCCOCc1ccc(-c2ccnc(F)c2)cc1` [Compound 16], the values for the IC50 (at GBA1; at GBA2 (setting [3]); in experiment [1] (read-out: GCS [nM] (IC50))) were 2000 nM, 4 nM and 150 nM, respectively.
On the same counts, the results for `OC[C@@H]1[C@@H](O)[C@H](O)[C@@H](O)CN1CCCCCOCc1ccc(-c2cccnc2)cc1` [Compound 17] are 3000 nM, 10 nM and 200 nM.
Turning to `OC[C@@H]1[C@@H](O)[C@H](O)[C@@H](O)CN1CCCCCOCc1ccc(-c2ccncc2)cc1` [Compound 18], the IC50 came to 2000 nM at GBA1, 10 nM at GBA2 (setting [3]) and 2000 nM in experiment [1] (setting [2]).
As to `OC[C@@H]1[C@@H](O)[C@H](O)[C@@H](O)CN1CCCCCOCc1ccc(-c2ccc3c(c2)OCCCO3)cc1` [Compound 19], the IC50 was determined as 3000 nM on GBA1, 10 nM at GBA2 and 25 nM in experiment [1] (read-out: GCS [nM] (IC50)).
On the same counts, the results for `OC[C@@H]1[C@@H](O)[C@H](O)[C@@H](O)CN1CCCCCOCc1ccc(-c2ccc3c(c2)OCCO3)cc1` [Compound 20] are 3000 nM, 10 nM and 25 nM.
As to `OC[C@@H]1[C@@H](O)[C@H](O)[C@@H](O)CN1CCCCCOCc1ccc(-c2ccc3c(c2)OCO3)cc1` [Compound 21], the IC50 at GBA1 came out at 2500 nM; against GBA2, 10 nM; in experiment [1] (read-out: GCS [nM] (IC50)), 25 nM.
For `OC[C@@H]1[C@@H](O)[C@H](O)[C@@H](O)CN1CCCCCOCc1ccc(-c2cc(C(F)(F)F)cc(C(F)(F)F)c2)cc1` [Compound 22], the values for the IC50 (on GBA1; at GBA2 (setting [3]); in experiment [1] (read-out: GCS [nM] (IC50))) were 800 nM, 15 nM and 20 nM, respectively.
Regarding `OC[C@@H]1[C@@H](O)[C@H](O)[C@@H](O)CN1CCCCCOCc1ccc(-c2ccc(C(F)(F)F)cc2)cc1` [Compound 23], the IC50 turned out to be 800 nM at GBA1, 10 nM on GBA2 (setting [3]) and 20 nM in experiment [1] (read-out: GCS [nM] (IC50)).
On the same counts, the results for `OC[C@@H]1[C@@H](O)[C@H](O)[C@@H](O)CN1CCCCCOCc1ccc(-c2ccc(Cl)cc2)cc1` [Compound 24] are 500 nM, 2 nM and 25 nM.
On the same counts, the results for `OC[C@@H]1[C@@H](O)[C@H](O)[C@@H](O)CN1CCCCCOCc1ccc(-c2ccccc2F)cc1` [Compound 25] are 600 nM, 2 nM and 74 nM.
Take `OC[C@@H]1[C@@H](O)[C@H](O)[C@@H](O)CN1CCCCCOCc1ccc(-c2cccc(F)c2)cc1` [Compound 26]: the IC50 on GBA1 was 250 nM; against GBA2 it was 2 nM; in experiment [1] (read-out: GCS [nM] (IC50)), 25 nM.
Take `OC[C@@H]1[C@@H](O)[C@H](O)[C@@H](O)CN1CCCCCOCc1ccc(-c2ccc(F)cc2)cc1` [Compound 27]: the figures for the IC50 (on GBA1; on GBA2 (setting [3]); in experiment [1] (read-out: GCS [nM] (IC50))) were 400 nM, 1 nM and 25 nM, respectively.
`N#Cc1ccccc1-c1ccc(COCCCCCN2C[C@H](O)[C@@H](O)[C@H](O)[C@H]2CO)cc1` [Compound 28]: the IC50 on GBA1 came out at 600 nM; against GBA2 (setting [3]), 5 nM; in experiment [1] (read-out: GCS [nM] (IC50)) it was 150 nM.
As to `N#Cc1cccc(-c2ccc(COCCCCCN3C[C@H](O)[C@@H](O)[C@H](O)[C@H]3CO)cc2)c1` [Compound 29], the IC50 at GBA1 came out at 700 nM; at GBA2 (setting [3]), 2 nM; in experiment [1] (setting [2]), 50 nM.
With `N#Cc1ccc(-c2ccc(COCCCCCN3C[C@H](O)[C@@H](O)[C@H](O)[C@H]3CO)cc2)cc1` [Compound 30], the IC50 is 350 nM at GBA1, 3 nM on GBA2 (setting [3]) and 150 nM in experiment [1] (read-out: GCS [nM] (IC50)).
As to `COc1ccccc1-c1ccc(COCCCCCN2C[C@H](O)[C@@H](O)[C@H](O)[C@H]2CO)cc1` [Compound 31], the figures for the IC50 (on GBA1; on GBA2; in experiment [1] (read-out: GCS [nM] (IC50))) were 600 nM, 0.7 nM and 50 nM, respectively.
With `COc1cccc(-c2ccc(COCCCCCN3C[C@H](O)[C@@H](O)[C@H](O)[C@H]3CO)cc2)c1` [Compound 32], the IC50 amounted to 2500 nM at GBA1, 20 nM against GBA2 (setting [3]) and 150 nM in experiment [1] (read-out: GCS [nM] (IC50)).
Turning to `OC[C@H]1[C@@H](O)[C@H](O)[C@@H](O)CN1CC(F)(F)CCCOCc1ccc(-c2ccccc2)cc1` [Compound 42], the IC50 was found to be 500000 nM on GBA1 and 2 nM at GBA2 (L-ido configuration series, Example 4).

As usually defined, the IC50 is the concentration at which inhibition is half-maximal.
